Among the data in PubChem BioAssay (NCI) are GI50 and TGI values, retold here.

Each structure is given as a SMILES string. “And” between values parts separate entries of the source, which are not always exact repeats. Equal entries are not always repeated.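 Step 1: Grow cells in 96-well plates. Step 2: Expose to compound for 48 hours at 5 concentrations. Step 3: Interpolate endpoints linearly; if unreached, use highest concentration. GI50 is the concentration that inhibits growth by half. TGI: total growth inhibition.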

Test systems include U251 CNS; SR leukemia; SN12C renal; OVCAR-5 ovarian; NCI-H460 lung; COLO 205 colon; RXF 393 renal; NCI-H23 lung; CCRF-CEM leukemia; DU-145 prostate.
Test in all cases: DTP human tumour cell line panel, 48 h

As for `CC1[C@@H]2[C@@H](C=C3C4CCC5Cc6nc7c(nc6C[C@@]5(C)C4C[C@H](O)[C@]32CO)CC2CCC3C4=C[C@H]5O[C@@]6(O[C@@](C)(CO)C[C@@H]6O)C(C)[C@@]5(O)[C@]4(C)[C@@H](O)CC3[C@]2(C)C7)O[C@]12CCC(C)(C)O2` (stereo partly specified), the concentration for 50% growth inhibition (GI50) (commonly the concentration that inhibits growth by half) in the test with U251 CNS is under 0.000365 µM; in the test with SN12C renal it was over 3.65 µM; in the test with OVCAR-5 ovarian, 0.00878 µM; in the test with NCI-H460 lung, 0.000713 µM; with COLO 205 colon, 0.0423 µM; in the test on RXF 393 renal, under 0.000365 µM. Also, in the test with CCRF-CEM leukemia, the 50% growth inhibitory concentration (GI50) was 0.000474 µM. Moreover, the concentration for total growth inhibition (TGI) – broadly, the concentration at which net growth stops – was 0.0664 µM in the test on U251 CNS; 0.229 µM in the test with SR leukemia; over 3.65 µM with SN12C renal; 0.961 µM and 0.108 µM in the test on OVCAR-5 ovarian; 0.132 µM and 0.104 µM with NCI-H460 lung; 0.566 µM and 0.138 µM in the test on COLO 205 colon. For the same molecule, the concentration for total growth inhibition (TGI) in the test on NCI-H23 lung was found to be 0.574 µM.
On to `CCC(C)CN1C(=O)NC(C)(Cc2ccccc2)C1=O` (stereo unspecified), for which the TGI with U251 CNS, in the test on SR leukemia, with SN12C renal, in the test with OVCAR-5 ovarian, with NCI-H460 lung and in the test on COLO 205 colon was over 100 µM in each case. The concentration for total growth inhibition (TGI) in the test with RXF 393 renal and in the test on NCI-H23 lung was over 100 µM in each case.
`COc1cc(C(=O)OCCCCCCCCCCC[P+](c2ccccc2)(c2ccccc2)c2ccccc2)ccc1O`: the GI50 in the test on SR leukemia was 0.364 µM; in the test with OVCAR-5 ovarian it was 1.59 µM; in the test on DU-145 prostate it was 0.46 µM; in the test on COLO 205 colon, 1.49 µM; in the test on CCRF-CEM leukemia, 0.434 µM. In addition, the TGI with SR leukemia was 2.31 µM; in the test with OVCAR-5 ovarian, 3.25 µM; in the test with DU-145 prostate, 1.58 µM; in the test with COLO 205 colon, 3.06 µM; in the test on CCRF-CEM leukemia, 2.52 µM.
`N=C(c1ccccc1)N(c1ccccc1)c1ccccc1`: the concentration for total growth inhibition (TGI) in the test with U251 CNS, in the test with SR leukemia, in the test on SN12C renal, in the test on OVCAR-5 ovarian, with NCI-H460 lung and in the test on COLO 205 colon was over 100 µM each time. Moreover, the concentration for total growth inhibition (TGI) with RXF 393 renal and in the test on NCI-H23 lung was over 100 µM each time.
`CC[P+](C)(Cc1ccccc1)c1ccccc1` (stereo unspecified): the concentration for total growth inhibition (TGI) with U251 CNS, with SR leukemia, in the test with SN12C renal, in the test with OVCAR-5 ovarian, with NCI-H460 lung and in the test with COLO 205 colon was over 100 µM each time. Moreover, the concentration for total growth inhibition (TGI) in the test with RXF 393 renal, with NCI-H23 lung and with CCRF-CEM leukemia was over 100 µM in each case.
Turning to `C#CCC[C@@H]1O[C@@]1(C)CC/C=C(\C)CC/C=C/C=O`, the TGI in the test on U251 CNS is 39.3 µM; in the test with SR leukemia it was over 100 µM; in the test on SN12C renal it was over 100 µM; with OVCAR-5 ovarian, over 100 µM; in the test on NCI-H460 lung it was over 100 µM; in the test with COLO 205 colon, over 100 µM. Besides, the TGI in the test with RXF 393 renal is over 100 µM; in the test with NCI-H23 lung, over 100 µM; with CCRF-CEM leukemia, 64.8 µM.
For the molecule `COc1cc(-c2nn3c(/C=C4/C(=O)Nc5ccccc54)c(-c4ccc(C)cc4)nc3s2)cc(OC)c1OC`, the GI50 in the test on U251 CNS is 1.59 µM; with SR leukemia, 2.35 µM; with SN12C renal, 5.26 µM; in the test on OVCAR-5 ovarian it was over 100 µM; in the test with DU-145 prostate, 2.55 µM; with NCI-H460 lung it was 1.98 µM. Moreover, the figures for the GI50 with RXF 393 renal and in the test on NCI-H23 lung were 2.24 µM and 4.54 µM, respectively. Moreover, the TGI with U251 CNS is 3.43 µM; in the test on SR leukemia, over 100 µM; in the test with SN12C renal, over 100 µM; in the test on OVCAR-5 ovarian, over 100 µM; with DU-145 prostate, over 100 µM; in the test with NCI-H460 lung, over 100 µM. Besides, the TGI came out at 14.7 µM in the test with RXF 393 renal and 25.3 µM in the test on NCI-H23 lung.
`CC1=C(C(=O)NCc2ccccc2)C(c2ccc(C3C(C(=O)NCc4ccccc4)=C(C)NC(C)=C3C(=O)NCc3ccccc3)cc2)C(C(=O)NCc2ccccc2)=C(C)N1`: the concentration for total growth inhibition (TGI) with U251 CNS is 14.4 µM; in the test with SR leukemia, 20.7 µM; in the test with SN12C renal, 20.5 µM; in the test with OVCAR-5 ovarian, 39.9 µM; in the test on NCI-H460 lung, over 100 µM; with COLO 205 colon, 21.3 µM. In addition, the TGI with RXF 393 renal is 33.4 µM; in the test with NCI-H23 lung, 33.1 µM; with CCRF-CEM leukemia, over 100 µM.
As to `Nc1nc(CCC(=O)Nc2cccc(C(F)(F)F)c2)cc(-c2cccc3ccccc23)n1`, the TGI in the test on U251 CNS, with SR leukemia, with SN12C renal, in the test on OVCAR-5 ovarian, in the test with NCI-H460 lung and in the test with COLO 205 colon was over 100 µM throughout. The TGI in the test with RXF 393 renal, in the test with NCI-H23 lung and in the test on CCRF-CEM leukemia was over 100 µM in each case.
Turning to `CC1CC2C3CC(F)C4=CC(=O)C=CC4(C)C3(F)C(O)CC2(C)C1(O)C(=O)COC(=O)C(C)(C)C` (stereo unspecified), the total growth inhibition concentration (TGI) in the test on U251 CNS is over 100 µM; in the test on SR leukemia it was over 100 µM; in the test with OVCAR-5 ovarian, over 100 µM; in the test on NCI-H460 lung, over 100 µM; with COLO 205 colon, over 100 µM; in the test on RXF 393 renal, 76.6 µM. Moreover, the TGI in the test on NCI-H23 lung and with CCRF-CEM leukemia was over 100 µM throughout.
`CC(=O)N1CCN(C2=Nc3ccccc3CO2)C1=S`: the GI50 in the test with U251 CNS was over 100 µM; in the test on SR leukemia it was 29.3 µM; with SN12C renal, over 100 µM; in the test on OVCAR-5 ovarian it was 85.8 µM; with DU-145 prostate, over 100 µM; with NCI-H460 lung, 70.5 µM. Moreover, the GI50 was over 100 µM in the test on COLO 205 colon, over 100 µM in the test with NCI-H23 lung and 32.9 µM in the test with CCRF-CEM leukemia. For the same molecule, the total growth inhibition concentration (TGI) was over 100 µM in the test with U251 CNS; 68.4 µM in the test with SR leukemia; over 100 µM with SN12C renal; over 100 µM with OVCAR-5 ovarian; over 100 µM in the test with DU-145 prostate; over 100 µM with NCI-H460 lung. Also, the TGI in the test on COLO 205 colon, with NCI-H23 lung and in the test on CCRF-CEM leukemia was over 100 µM throughout.
With `CN(C)c1ccc2c(c1)C(=O)N(OS(=O)(=O)c1ccc([N+](=O)[O-])cc1)C2=O`, the total growth inhibition concentration (TGI) in the test on U251 CNS is 35.1 µM; in the test on SR leukemia, 63.8 µM; in the test with SN12C renal, 56.4 µM; with OVCAR-5 ovarian, 57.6 µM; with NCI-H460 lung it was over 100 µM; in the test on COLO 205 colon it was 54.6 µM. Moreover, the TGI came to 28.1 µM in the test on RXF 393 renal, 64 µM with NCI-H23 lung and 63.1 µM in the test with CCRF-CEM leukemia.
As for `CCOc1ccccc1NC(=O)CCC(=O)OC`, the concentration for total growth inhibition (TGI) in the test with U251 CNS is over 71.1 µM; with SR leukemia, over 100 µM; with SN12C renal, over 100 µM; in the test on OVCAR-5 ovarian, over 100 µM; in the test with NCI-H460 lung it was over 100 µM; in the test with COLO 205 colon, over 100 µM. The figures for the TGI with RXF 393 renal, with NCI-H23 lung and in the test with CCRF-CEM leukemia were over 100 µM, over 100 µM and over 66.7 µM, respectively.
